From publication PMC8706879 (Pharmaceuticals, 2021)
Read-outs that look alike come from different tables or passages of the source. Where a SMILES comes first, the peptide text is derived from it. Bridges are numbered along the chain shown (N, C = ends). [ ]: non-standard residue; d: D form. The star is where a group is joined. DOTA = O=C(O)CN1CCN(CC(=O)O)CCN(CC(=O)*)CCN(CC(=O)O)CC1; dPhe(4-NHCONH2) = NC(=O)Nc1ccc(C[C@@H](N)C(=O)O)cc1; Dihydroorotyl(S) = O=C1C[C@@H](C(=O)*)NC(=O)N1; Phe(4-Cl) = N[C@@H](Cc1ccc(Cl)cc1)C(=O)O; Phe(4-NH2) = Nc1ccc(C[C@H](N)C(=O)O)cc1

What was measured:
human SST2 [1] = biological target: T1, human SST2 (Homo sapiens, UniProt P30874); assay: biochemical
T1 sequence (P30874 whole entry): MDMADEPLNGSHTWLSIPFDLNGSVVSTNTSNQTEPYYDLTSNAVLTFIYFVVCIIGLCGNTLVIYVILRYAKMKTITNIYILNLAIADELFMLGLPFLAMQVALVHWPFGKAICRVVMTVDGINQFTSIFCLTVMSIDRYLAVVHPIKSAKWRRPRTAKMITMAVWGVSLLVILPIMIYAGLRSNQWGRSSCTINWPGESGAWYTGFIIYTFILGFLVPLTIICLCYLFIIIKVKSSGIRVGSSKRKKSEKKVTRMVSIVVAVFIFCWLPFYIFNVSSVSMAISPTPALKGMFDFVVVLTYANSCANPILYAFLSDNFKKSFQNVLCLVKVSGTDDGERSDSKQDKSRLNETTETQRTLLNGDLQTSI
Procedure: (§1) To prepare cell membranes, HEK-SST2 cells were grown to confluence, mechanically disaggregated, washed with PBS (pH 7.4) and re-suspended in 20 mM of homogenisation Tris buffer (pH 7.5) containing 1.3 mM EDTA, 0.25 M sucrose, 0.7 mM bacitracin, 5 µM soybean trypsin inhibitor and 0.7 mM PMSF. The cells were homogenised using Ultra-Turrax, and the homogenised suspension was centrifuged at 500× g for 10 min at 4 °C. The supernatant was collected in centrifuge tubes (Beckman Coulter Inc., Brea, CA, USA). This procedure was then repeated 5 times. The collected supernatant was centrifuged in an ultra-centrifuge (Beckman) at 4 °C for 55 min at 20,000 rpm (approximately 49,000× g). Then, the pellet was re-suspended in 10 mM ice-cold HEPES buffer (pH 7.5), aliquoted, and stored at −80 °C. The protein concentration of those membrane suspensions was determined by the Bradford method, BSA as the standard.
(§2) In all assays, non-specific binding of [^177Lu]Lu-OPS201 was determined using 1000-fold excess of the unlabelled SST2 antagonist OPS202, also known as NODAGA-JR11, (where NODAGA is 1,4,7-triazacyclononane,1-glutaric acid-4,7-acetic acid). […] All reported values refer to specific binding (total minus non-specific binding). The radioactivity of all samples was measured in a gamma-counter (COBRA 5003, Packard Instruments). For all binding experiments with membranes, bound radioligand was separated from the one remaining in solution by rapid vacuum filtration, using an M-48 Brandel Cell Harvester (Alpha Biotech Ltd., Glasgow, UK). The filters were dried before being measured in the gamma-counter.
The dissociation of those radioligands was initiated by adding a 1000-fold excess of either unlabelled Lu-OPS201, Lu-DOTA-TATE, DOTA-BASS or lanreotide and monitored for up to 3 h. To monitor the stability of the radioligand–receptor complex during this extended time period, the membranes were incubated with radioligand for up to 4 h.

HEK-SST2 cells [2] = assay: Sub-cellular redistribution of cell surface-bound radioligand at 37 °C; format: cell-based, human; parameters: reduction of initial surface-bound fraction: concentration or dose not given beside the values
Procedure: (§3) In vitro assays on intact cells were performed with HEK-SST2 cells seeded in 6-well plates. The plates were pre-treated with a solution of 10% poly-lysine to promote cell attachment. HEK-SST2 cells (about 1 × 10^6 cells) were incubated in 1% (v/v) FBS containing medium at 37 °C/5% CO2 overnight. The day after, the cells were washed with medium, followed by incubation with the adjusted medium volume for 1 h prior starting the experiment.
as §2
The cell surface-bound internalisation and dissociation rates of [^177Lu]Lu-OPS201 were studied in HEK-SST2 cells seeded in 6-well plates (10^6 cells/well), which were first placed on ice for 30 min. The experiment was started by adding 2.5 nM [^177Lu]Lu-OPS201 to the medium, and the incubation was carried out at 4 °C for 2 h to prevent internalisation of the radioligand. Afterwards, the cells were washed with ice-cold PBS, and 1 mL/well of fresh pre-warmed (37 °C) medium was added. One plate was immediately treated with ice-cold glycine solution, and then the cells were detached with NaOH to determine the initial surface-bound and internalised fraction. The other plates were incubated at 37 °C for 10, 20, 30, 60, 120 or 240 min (one plate per time point) before the same treatment. At the specified time points, the amount of radioactivity, presented as cell surface-bound, internalised and in medium redistributed radioligand, was expressed in percentage of the cell-associated fraction (surface bound and internalised uptake) at the onset of the redistribution step as control. All reported values have been corrected for non-specific uptake.

HEK-SST2 cells [3] = assay: Radioligand binding to and internalisation by intact HEK-SST2 cells; format: cell-based, human; settings: for cell surface bound fraction of total added radioligand / internalised fraction of total added radioligand: 4 h incubation at 37 °C, 2.5 nM
Procedure: The HEK-293 cell line expressing the T7-epitope tagged human SST2 (HEK-SST2) was provided by Prof. Stefan Schulz (Institute of Pharmacology and Toxicology, Jena University Hospital, Jena, Germany). HEK-SST2 cells were cultured at 37 °C and 5% CO2 in DMEM containing 10% FBS, 100 U/mL penicillin, 100 µg/mL streptomycin, […] L-glutamine, and 500 µg/mL geneticin (G-418).
as §3, §2
After 0.5, 1, 2 and 4 h (one plate per time point), the medium was removed, and the plated cells were quickly washed twice with ice-cold PBS. The cells were then treated twice for 5 min with ice-cold glycine solution (0.05 M, pH 2.8) to detach the cell surface-bound radioligand (acid releasable). Afterwards, the cells containing the internalised radioligand were detached with 1 M NaOH at 37 °C and collected for measurement. The amount of specific cell surface-bound and internalised radioligand is expressed as a percentage of the total applied activity after subtracting the non-specific values.

HEK-SST2 cells [4] = assay: Externalisation of [^177Lu]Lu-DOTA-TATE by intact cells; format: cell-based, human
Procedure: (§4) In vitro assays on intact cells were performed with HEK-SST2 cells seeded in 6-well plates. The plates were pre-treated with a solution of 10% poly-lysine to promote cell attachment. HEK-SST2 cells (about 1 × 10^6 cells) were incubated in 1% (v/v) FBS containing medium at 37 °C/5% CO2 overnight. The day after, the cells were washed with medium, followed by incubation with the adjusted medium volume for 1 h prior starting the experiment. […] The cells were afterwards incubated at 37 °C under the same three different conditions as above. […] At the end, the cells were treated with NaOH and collected for measurement. All reported values were also normalised as described above. In both aforementioned experiments, the 37 °C washout medium was repeatedly refreshed in an attempt to limit any re-equilibration between free and cell-associated radioligand and to reduce the accumulation (and thus the rebinding) of radioligand molecules when they were already dispersed in the bulk of the naïve medium. All data were fitted according to the one-phase exponential decay equation (GraphPad Software Inc., Prism 7).

human SST2 [5] = biological target: T1, human SST2; assay: Saturation binding on HEK-SST2 cell membranes
Procedure: as §1, §2
The incubation was initiated by adding 30 μL of radioligand solution at 10 times the final concentration and 100 μL of cell membrane suspension to yield 10 μg of protein per well.

HEK-SST2 cells [6] = assay: Dissociation/release of cell-associated [^177Lu]Lu-OPS201 by intact cells; format: cell-based, human; settings: after 4 h at 37 °C
Procedure: as §4, with “then” for “afterwards”, “under three different conditions: […] At preselected time points, the medium was removed for quantification and replaced by fresh pre-warmed (37 °C) medium (either alone or with” for “under”, “unlabelled competitor).” for “three different conditions as above.”, “All” for “All reported”

[7] = after 2 h pre-incubation at 4 °C
[8] = after 4 h of incubation at 37 °C

H-D2Nal-c(Cys-Tyr-DTrp-Lys-Val-Cys)-Thr-NH2 [lanreotide, reference compound]
displacement of specifically bound [^177Lu]Lu-OPS201 by the unlabelled agonist (human SST2 [1]; high concentration (1000-fold excess) of competitor, HEK-SST2 membranes): no more than 30%

C[C@@H](O)[C@H](NC(=O)[C@@H]1CSSC[C@H](NC(=O)[C@@H](Cc2ccccc2)NC(=O)CN2CCN(CC(=O)O)CCN(CC(=O)O)CCN(CC(=O)O)CC2)C(=O)N[C@@H](Cc2ccc(O)cc2)C(=O)N[C@H](Cc2c[nH]c3ccccc23)C(=O)N[C@@H](CCCCN)C(=O)N[C@@H]([C@@H](C)O)C(=O)N1)C(=O)O [[^177Lu]Lu-DOTA-TATE, ^177Lu-oxodotreotide, metal not drawn]
cell surface binding at 4 °C (HEK-SST2 cells [2]; 4 °C): very low cell surface binding | internalised fraction (HEK-SST2 cells [3]; 30 min of incubation at 37 °C): more than 50% | cell surface bound fraction of total added radioligand (HEK-SST2 cells [3]): 2 ± 1% | internalised fraction of total added radioligand (HEK-SST2 cells [3]): 77 ± 3% | decrease of internalised radioligand during washout (HEK-SST2 cells [4]; after 4 h in naïve medium, 37 °C): only partial | decrease of internalised radioligand during washout (HEK-SST2 cells [4]; after 4 h in the presence of an excess of Lu-DOTA-TATE and Lu-OPS201, 37 °C): nearly complete

C[C@@H](O)[C@@H]1NC(=O)[C@H](CCCCN)NC(=O)[C@@H](Cc2ccc(NC(N)=O)cc2)NC(=O)[C@H](Cc2ccc(NC(=O)[C@@H]3CC(=O)NC(=O)N3)cc2)NC(=O)[C@H](NC(=O)[C@H](Cc2ccc(Cl)cc2)NC(=O)CN2CCN(CC(=O)O)CCN(CC(=O)O)CCN(CC(=O)O)CC2)CSSC[C@@H](C(=O)N[C@H](Cc2ccc(O)cc2)C(N)=O)NC1=O [[^177Lu]Lu-OPS201, ^177Lu-satoreotide tetraxetan, metal not drawn] ({DOTA}-[Phe(4-Cl)][dC][Phe(4-NH2)](Dihydroorotyl(S))[dPhe(4-NHCONH2)]KTC[dY]-NH2; disulfide 2-7)
internalised fraction of added radioligand (HEK-SST2 cells [2]; [7]): 7% | surface-bound fraction of added radioligand (HEK-SST2 cells [2]; [7]): 54% | fraction released in the medium (HEK-SST2 cells [2]; after 4 h at 37 °C, undisturbed medium): < 5% | internalised fraction (of cell-associated activity) (HEK-SST2 cells [2]; [8]): 24% | reduction of initial surface-bound fraction (HEK-SST2 cells [2]; [8]): 17% | surface-bound fraction (of cell-associated activity) (HEK-SST2 cells [2]; [8]): 71% | internalised fraction (of cell-associated activity) (HEK-SST2 cells [2]; t = 0 of 37 °C incubation): 12% | surface-bound fraction (of cell-associated activity) (HEK-SST2 cells [2]; t = 0 of 37 °C incubation): 88% | Bmax (human SST2 [5]; HEK-SST2 cell membranes 10 µg/well, 37 °C, single-site model): 0.37 ± 0.02 nM | Kd (human SST2 [5]; HEK-SST2 cell membranes, 37 °C, single-site model): 0.15 ± 0.003 nM | number of binding sites recognised relative to [^177Lu]Lu-DOTA-TATE (human SST2 [5]; saturation binding, HEK-SST2 cell membranes): about four times more sites | cell surface bound fraction of total added radioligand (HEK-SST2 cells [3]): 46 ± 2% | internalised fraction of total added radioligand (HEK-SST2 cells [3]): 31 ± 1% | dissociation t1/2 (human SST2 [1]): 41 min | koff (human SST2 [1]; HEK-SST2 membranes, competitor DOTA-BASS): 0.0003 s⁻¹ | koff (human SST2 [1]; HEK-SST2 membranes, competitor Lu-OPS201): 0.000283 s⁻¹ | dissociation t1/2 (human SST2 [1]; competitor: excess DOTA-BASS): 38 min | radioligand released (HEK-SST2 cells [6]; repeatedly refreshed naïve medium): 40% | radioligand released (HEK-SST2 cells [6]; washout medium with excess of unlabelled Lu-OPS201 or Lu-DOTA-TATE): 70%
